# Data reported in patent US9125406B2, “Methods and compositions for control of cabbage looper, trichoplusia ni” (Simon Fraser University, priority 2008, dated 2015).
# Like-named read-outs stand apart in the source and are kept apart here.
# How the values were obtained:
# [1] = system: T. ni moths; experiment: Oviposition choice (deterrence) bioassay on cabbage leaves; assay type: in vivo, Trichoplusia ni; conditions: for % deterrence / Index = deterrence/mortality: Table 11; for % deterrence: BL mark not explained; for Index = deterrence/mortality: oviposition deterrence divided by mortality
# Method: (§1) Initial screening for feeding deterrent effects was conducted at 50 μg/cm^2 in feeding deterrent bioassays.
# T. ni larvae were reared on normal diet from neonates (<24 h old) until pupation. Pupae were sexed and put in separate plastic containers until emergence. After eclosion, pairs of moths (one male and one female) were introduced into each cage with a control and a treated cabbage leaf. Pairs of moths (n=25) were used per treatment. Each leaf (approximately 100-110 cm^2) was sprayed with 0.5 mL of MeOH or a methanolic solution of the test chemical on each side. Eggs were counted on each cabbage leaf after 48 h.
# [2] = system: third instar T. ni larvae; experiment: Leaf disk choice feeding deterrence bioassay; assay type: in vivo, Trichoplusia ni; conditions: for pest or weed control at 50 µg/cm2, 50 µg/cm2 / pest or weed control at 50 µg/cm2: Trichoplusia, foliar; for pest or weed control at 50 µg/cm2: read-out: % deterrence; for DC50: feeding deterrence DC50, unit not given in Table 12
# Excerpt: Cabbage plants (Brassica oleraceae var. Stonehead) used in the bioassays were routinely grown in plastic pots with a mixture of sandy loam soil and peat moss (4:1) in a greenhouse at the University of British Columbia, Vancouver, BC, Canada. Leaves were collected from cabbage plants that were 5-6 weeks old.
# T. ni larvae and moths were obtained from a long established colony (>50 generations) maintained on an artificial diet, Velvetbean Caterpillar Diet No. F9796 [Bio-Sery Inc. (Frenchtown, NIL)] in the insectary of the University of British Columbia (UBC).
# as §1
# Larvae were given the choice of feeding on two leaf disks, one treated with 10 μL of a solution of the test substance painted on each side and the other treated with a carrier solvent alone. The number of larvae was 25 per treatment.
# Feeding deterrence data (percent) for initial screening concentration were analyzed by analysis of variance (ANOVA) after arcsin transformation using statistics software (Statistix 7. Analytical Software, Statistix 7 for Windows 95, 98, NT, 2000. Analytical Software, Tallahassee).
# [3] = system: third instar T. ni larvae; experiment: whole plant or invertebrate; conditions: for mortality at 0.25 %: Trichoplusia, topical, 24 h
# Method: as §1
# Mortality was determined 24 h after spraying larvae directly with test solutions. Third instar T. ni larvae were sprayed in 90 mm×15 mm Petri dishes (Falcon) lined with Fisher Scientific filter paper (90 mm diameter). Small plastic hand spraying bottles (50 mL capacity) were used. Larvae were then transferred to Petri dishes (90 mm×15 mm) with a small piece of artificial diet. Each Petri dish contained 10 larvae. Three replicates, each consisting of 10 larvae, were used per treatment.
# [4] = system: T. ni moths; experiment: Oviposition choice (deterrence) bioassay on cabbage leaves; assay type: in vivo, Trichoplusia ni; conditions: for pest or weed control at 0.25 %: Trichoplusia, 48 h, read-out: OD (%) Mean ± SE N = 35-40
# [5] = system: Trichoplusia ni larva; experiment: Leaf-disc choice bioassay on cabbage: dose-response and blend assay (Example 12); assay type: in vivo
# Method: T. ni larvae were raised from eggs (Insect Production Services, Natural Resources Canada) on a wheat-germ based artificial diet (McMorran diet, Insect Production Services, Natural Resources Canada), or raised from eggs from a laboratory colony of T. ni adults, at 22±1° C., 32-40% humidity, 9 h/15 h light/dark photoperiod.
# Cabbage (Brassica oleracea L. cv. Golden Acre) plants were grown from seed (Pacific Northwest Seeds, Vernon, B.C.) in sandy loam soil in the laboratory at 21±1° C. beside a south-facing window. Plants received supplemental lighting from grow-lights emitting light of wavelengths 430 and 662 nm for 2 h/d. Plants were about 2-3 months old (with about 8-12 fully expanded leaves) at time of leaf collection for disc choice bioassays.
# 3c{3,6} was synthesized as described herein. Azadirachtin in a neem oil preparation (TreeAzin [5% azadirachtins A and B]) was obtained from BioForest Technologies Inc., Sault Step. Marie, Canada. Azadirachtin solutions were prepared fresh on the day of the bioassay to avoid degradation. Cetyl alcohol was obtained from Sigma, palmitic acid from BDH Chemicals Ltd., methanol (HPLC-grade) from Calcdon, and isopropanol (2-propanol-205, distilled in glass) from Calcdon Ammonium hydroxide solution was obtained from CanLab.
# Blend and whole plant studies used a “vehicle” that consisted of palmitic acid (25 mM), cetyl alcohol (25 mM), and isopropanol (50%). The vehicle was prepared by dissolving palmitic acid and cetyl alcohol in isopropanol. The solution was neutralized with 1M NaOH, followed by step-wise dilution with water.
# Leaf discs (disc area: 2.24 cm^2) cut with a no. 10 borer from cabbage plant leaves were painted on each side with 20 μL of treatment solution or solvent, using a Hamilton 25 μL glass syringe, and allowed to dry. One treatment and one control leaf disc were placed on opposite sides (5 cm apart) of a 9 cm diameter Petri dish containing moistened filter paper (Whatman #1, 70 mm). A fasting Trichoplusia ni larva was placed midway between the two leaf discs and oriented away from either disc. Replicate Petri dishes were kept in a plastic basin, protected from light, at 22±1° C. during the feeding period. Larvae fasted for approximately 7 h prior to the experiments. […]
# Leaf disc areas consumed were measured using a Canon CanoS can LiDE 20 scanner, CanoScan Toolbox 4.1 software, Microsoft Office Picture Manager, and Un-Scan-It Gel and Graph Digitizing Software v. […]
# In the dose-response study leaf-disc choice bioassays were performed with larvae in day 1 or 2 of the 3rd and 4th instar. […] There were not enough data points in the dose-response data for a sigmoidal fit, but the DC50 could be determined by linear regression analysis, as was the case for Akhtar et al. (2007). […]
# [6] = system: T. ni neonates; experiment: Greenhouse test on cabbage plants with T. ni neonates; assay type: in vivo, Trichoplusia ni; conditions: for mean larval recovery / weight reduction: 6 days
# Method: […] Cabbage plants had 3-5 leaves. Each plant was sprayed (˜1 ml/leaf) and dried before the introduction of insects. There were 3 replicates of 5 plants for each treatment. Approximately nine T. ni neonates (<24 h old) were transferred on each plant. They were weighed after 6 days of feeding on the treatments. Numbers of larvae recovered from each treatment were also recorded. […] The mean larval recovery was not affected at the lowest concentration (0.0002%).
# [7] = oviposition deterrence at 0.25%
# [8] = Table 8, 50 μg/cm^2, read-out: F.D (%) Mean ± SE N = 25
# [9] = feeding deterrence (FD), Table 12, non-toxic feeding deterrents
# [10] = read-out: Mortality (%) N = 3 × 10, Table 8, at 0.25%
# [11] = contact toxicity to larvae, negative or zero values replaced by 0.1 for the index (footnote b)
# [12] = read-out: Mortality (%) N = 3 × 10, Table 10, at 0.25%
SMILES,"pest or weed control at 50 µg/cm2, 50 µg/cm2 [2, 8]","pest or weed control at 50 µg/cm2 [2, 9]",DC50 [2],"mortality at 0.25 % [3, 10]","% mortality [3, 11]","pest or weed control at 0.25 % ([4]; Table 8, at 0.25%)",also measured
"CCCCOc1ccccc1OCCC [3a{3, 4}, 1-propoxy-2-butoxybenzene]",98 ± 2%,98%,21 μg/cm^2,19%,19%,37 ± 14%,"% deterrence [1, 7]: 37 BL %; Index = deterrence/mortality [1]: 1.9"
"C=CCOc1ccccc1OCCCC [3a{4, 6}, 1-allyloxy-2-butoxybenzene]",92 ± 6%,92%,17 μg/cm^2,19%,19%,35 ± 17%,"% deterrence [1, 7]: 35 BL %; Index = deterrence/mortality [1]: 1.8"
"C=CCOc1cccc(OC)c1 [3b{1, 6}, 1-allyloxy-3-methoxybenzene]",66 ± 12%,–,–,33%,–,9 ± 14%,–
"CCCOc1cccc(OCCC(C)C)c1 [3b{3, 5}, 3-propoxy-1-isopentoxybenzene]",97 ± 3%,97%,17 μg/cm^2,10%,10%,9 ± 17%,–
"C=CCOc1cccc(OCC=C)c1 [3b{6, 6}, 1,3-Diallyloxy benzene]",97 ± 3%,97%,20 μg/cm^2,13%,13%,25 to 30%,–
"CCCOc1ccc(OCC)cc1 [3c{2, 3}, 4-ethoxy-1-propoxybenzene]",100%,100%,33 μg/cm^2,17%,17%,10 ± 13%,–
"C=CCOc1ccc(OCC)cc1 [3c{2, 6}, 1-allyloxy-4-ethoxybenzene]",73 ± 12%,–,–,6.7%,–,< 30%,–
"C=CCOc1ccc(OCCC)cc1 [3c{3, 6}, 1-allyloxy-4-propoxybenzene]",100%,100%,0.5 μg/cm^2,–,−11 ^b %,< 30%,"FDI (%) mean (SE) ([5]; 45 ug/cm^2): 100 (0) b %; FDI (%) mean (SE) ([5]; 45 ug/cm^2, listed as 3c{3,6}): 100±0%; DC50 ([5]; 3rd and 4th instar larvae, 83% methanol, linear regression 9 to 45 μg/cm^2): 27 μg/cm^2; mean larval recovery ([6]; 0.0002% spray): not affected; weight of the larvae ([6]; 0.0002% spray, 6 days feeding on cabbage plants): not affected; mean larval recovery ([6]; 0.0005% spray): 66.7%; weight reduction ([6]; 0.0005% spray): 33.3%; mean larval recovery ([6]; 0.001% spray): 52%; weight reduction ([6]; 0.001% spray): 48%; growth reduction ([6]; 10 ppm, highest concentration): ~50%"
"C=CCOc1ccc(OCCC(C)C)cc1 [3c{5, 6}, 1-allyloxy-4-isopentoxybenzene]",–,–,–,–,–,-25 ± 12%,"pest or weed control at 0.25 % ([1]; Trichoplusia, 48 h, Table 3, oviposition deterrence at 0.25%, 48 h, read-out: OD (%), mean ± SE (n = 25-33)): 18.8 ± 14.3%; pest or weed control at 50 µg/cm2, 50 µg/cm2 ([2]; Table 3, 1,4-dialkoxybenzenes, feeding deterrence at 50 μg/cm^2, read-out: FD (%), mean ± SE (n = 25)): 75.1 ± 12.7%; mortality at 0.25 % ([3]; read-out: mortality (%) (n = 3 × 10), Table 3, at 0.25%): 7%"
"C=CCc1c(OCC)cccc1OCCC [5b{3, 2} y (100% y), 1-ethoxy-2-allyl-3-propoxy-benzene]",–,–,–,–,–,–,"pest or weed control at 50 µg/cm2, 50 µg/cm2 ([2]; Table 7, second lots and purified isomers, 50 μg/cm^2, read-out: F.D (%) Mean ± SE N = 25): 74 ± 14%; mortality at 0.25 % ([3]; read-out: Mortality (%) N = 3 × 10, Table 7, second lots and purified isomers, at 0.25%): 0%; pest or weed control at 0.25 % ([4]; Table 7, second lots and purified isomers, at 0.25%): -6.4 ± 11.4%"
"C=CCc1cc(OC)ccc1OC [5c{1, 1}, 1,4-dimethoxy-2-allyl-benzene]",–,–,20 μg/cm^2,–,–,–,"pest or weed control at 50 µg/cm2 [2]: 80%; pest or weed control at 50 µg/cm2, 50 µg/cm2 ([2]; read-out: F.D (%) Mean ± SE N = 25): 80 ± 11%; mortality at 0.25 % [3, 12]: 38.9%; % mortality ([3]; in vivo): 39%; pest or weed control at 0.25 % [4]: 14 ± 12%"
"C=CCc1cc(OCCC)ccc1OC [5c{3, 1}, 1-methoxy-2-allyl-4-propoxy-benzene]",–,92%,9 μg/cm^2,–,6%,–,"pest or weed control at 50 µg/cm2, 50 µg/cm2 ([2]; Table 10, 50 μg/cm^2, read-out: F.D (%) Mean ± SE N = 25): 92 ± 6%; mortality at 0.25 % [3, 12]: 6.4%; pest or weed control at 0.25 % ([4]; Table 10, at 0.25%): 7 ± 15%"
"CCN(CC)C(=O)c1cccc(C)c1 [DEET, reference compound]",–,–,–,–,–,–,"F.D (%) Mean ± SE N = 25 ([2]; Table 8, 50 μg/cm^2): 60 ± 15 ^AB %; Mortality (%) N = 3 × 10 ([3]; Table 8, at 0.25%): 7%; OD (%) Mean ± SE N = 35-40 ([4]; Table 8, at 0.25%): 23 ± 14%"
"C/C=C(\C)C(=O)O[C@H]1C[C@@H](OC(C)=O)[C@@]2(C(=O)OC)CO[C@H]3[C@@H](O)[C@@](C)([C@]45O[C@@]4(C)[C@H]4C[C@@H]5O[C@@H]5OC=C[C@@]54O)[C@H]4[C@]1(CO[C@]4(O)C(=O)OC)[C@@H]32 [azadirachtin, reference compound]",–,–,–,–,–,–,"FDI (%) mean (SE) ([5]; 4.9 ug/cm^2 in vehicle, fifth instar larvae): 43 (20) a %"
